ChEMBL document CHEMBL3885881, “DrugMatrix”

Species: Rattus norvegicus
Experiment: DrugMatrix - Regimen: Daily Repeat
Type: toxicity, organism-based, Sprague-Dawley
Design: regimen Daily Repeat, gender Male, age 6-8 weeks
Settings: in vivo, po, route oral GAVAGE, […]; for ABSOLUTE BASOPHIL / ABSOLUTE EOSINOPHIL / ABSOLUTE LYMPHOCYTE / ABSOLUTE MONOCYTE / ABSOLUTE SEGMENTED NEUTROPHIL / BASOPHIL / EOSINOPHIL / ERYTHROCYTE COUNT / HEMATOCRIT / HEMOGLOBIN / LEUKOCYTE COUNT / LYMPHOCYTE / MEAN CORPUSCULAR HEMOGLOBIN / MEAN CORPUSCULAR HEMOGLOBIN CONCENTRATION / MEAN CORPUSCULAR VOLUME / MONOCYTE / NEUTROPHIL / NUCLEATED RED BLOOD CELLS / PLATELET COUNT: tissue Blood; for ALANINE AMINOTRANSFERASE / ALBUMIN / ALKALINE PHOSPHATASE / ASPARTATE AMINOTRANSFERASE / BLOOD UREA NITROGEN / CARBON DIOXIDE / CHLORIDE / CHOLESTEROL / CREATINE PHOSPHOKINASE / CREATININE / GLUCOSE / LACTATE DEHYDROGENASE / LIPASE / PHOSPHORUS / POTASSIUM / SODIUM / TOTAL BILIRUBIN / TOTAL PROTEIN / URIC ACID: tissue Plasma
[1] = 81 mg/kg, 72 h, dose level High, time 3 day
[2] = 81 mg/kg, 120 h, dose level High, time 5 day
[3] = 72 h, dose 8.1 mg/Kg, dose level Low, time 3 day
[4] = 120 h, dose 8.1 mg/Kg, dose level Low, time 5 day

Compound: Nc1ccc(Cc2ccc(N)cc2)cc1
- ABSOLUTE BASOPHIL [1]: 0 CELLS/uL
- ABSOLUTE EOSINOPHIL [1]: 75.33 CELLS/uL
- ABSOLUTE LYMPHOCYTE [1]: 15902.67 CELLS/uL
- ABSOLUTE MONOCYTE [1]: 589 CELLS/uL
- ABSOLUTE SEGMENTED NEUTROPHIL [1]: 3066.33 CELLS/uL
- BASOPHIL [1]: 0%
- EOSINOPHIL [1]: 0.33%
- ERYTHROCYTE COUNT [1]: 5.52 x10E6/uL
- HEMATOCRIT [1]: 34.27%
- HEMOGLOBIN [1]: 13.27 G/DL
- LEUKOCYTE COUNT [1]: 19.63 x10E3/uL
- LYMPHOCYTE [1]: 81.33%
- MEAN CORPUSCULAR HEMOGLOBIN [1]: 24.13 pg
- MEAN CORPUSCULAR HEMOGLOBIN CONCENTRATION [1]: 38.83 G/DL
- MEAN CORPUSCULAR VOLUME [1]: 62.2 fL
- MONOCYTE [1]: 3%
- NEUTROPHIL [1]: 15.33%
- NUCLEATED RED BLOOD CELLS [1]: 0.33 /100WBC
- PLATELET COUNT [1]: 1017.33 x10E3/uL
- ALANINE AMINOTRANSFERASE [1]: 253.67 u/L
- ALBUMIN [1]: 3.4 G/DL
- ALKALINE PHOSPHATASE [1]: 742 u/L
- ASPARTATE AMINOTRANSFERASE [1]: 450.67 u/L
- BLOOD UREA NITROGEN [1]: 10.67 mg/dL
- CARBON DIOXIDE [1]: 24.33 mmol/L
- CHLORIDE [1]: 102.33 MEQ/L
- CHOLESTEROL [1]: 143.67 mg/dL
- CREATINE PHOSPHOKINASE [1]: 1027.33 u/L
- CREATININE [1]: 0.14 mg/dL
- GLUCOSE [1]: 152 mg/dL
- LACTATE DEHYDROGENASE [1]: 723.67 u/L
- LIPASE [1]: 11 u/L
- PHOSPHORUS [1]: 11.77 mg/dL
- POTASSIUM [1]: 5.87 MEQ/L
- SODIUM [1]: 142.6 MEQ/L
- TOTAL BILIRUBIN [1]: 0.9 mg/dL
- TOTAL PROTEIN [1]: 5.13 G/DL
- URIC ACID [1]: 1.27 mg/dL
- ABSOLUTE BASOPHIL [2]: 0 CELLS/uL
- ABSOLUTE EOSINOPHIL [2]: 0 CELLS/uL
- ABSOLUTE LYMPHOCYTE [2]: 23023 CELLS/uL
- ABSOLUTE MONOCYTE [2]: 1729.67 CELLS/uL
- ABSOLUTE SEGMENTED NEUTROPHIL [2]: 3714 CELLS/uL
- BASOPHIL [2]: 0%
- EOSINOPHIL [2]: 0%
- ERYTHROCYTE COUNT [2]: 5.81 x10E6/uL
- HEMATOCRIT [2]: 34.63%
- HEMOGLOBIN [2]: 13.53 G/DL
- LEUKOCYTE COUNT [2]: 28.47 x10E3/uL
- LYMPHOCYTE [2]: 81%
- MEAN CORPUSCULAR HEMOGLOBIN [2]: 23.33 pg
- MEAN CORPUSCULAR HEMOGLOBIN CONCENTRATION [2]: 39.1 G/DL
- MEAN CORPUSCULAR VOLUME [2]: 59.67 fL
- MONOCYTE [2]: 6%
- NEUTROPHIL [2]: 13%
- NUCLEATED RED BLOOD CELLS [2]: 0 /100WBC
- PLATELET COUNT [2]: 1124.33 x10E3/uL
- ALANINE AMINOTRANSFERASE [2]: 131.67 u/L
- ALBUMIN [2]: 3.4 G/DL
- ALKALINE PHOSPHATASE [2]: 589 u/L
- ASPARTATE AMINOTRANSFERASE [2]: 255.33 u/L
- BLOOD UREA NITROGEN [2]: 14 mg/dL
- CARBON DIOXIDE [2]: 28.33 mmol/L
- CHLORIDE [2]: 101.67 MEQ/L
- CHOLESTEROL [2]: 138.33 mg/dL
- CREATINE PHOSPHOKINASE [2]: 541 u/L
- CREATININE [2]: 0.23 mg/dL
- GLUCOSE [2]: 138.33 mg/dL
- LACTATE DEHYDROGENASE [2]: 636.33 u/L
- LIPASE [2]: 11.67 u/L
- PHOSPHORUS [2]: 9.3 mg/dL
- POTASSIUM [2]: 5.58 MEQ/L
- SODIUM [2]: 142.97 MEQ/L
- TOTAL BILIRUBIN [2]: 0.83 mg/dL
- TOTAL PROTEIN [2]: 5.7 G/DL
- URIC ACID [2]: 1.2 mg/dL
- ABSOLUTE BASOPHIL [3]: 0 CELLS/uL
- ABSOLUTE EOSINOPHIL [3]: 0 CELLS/uL
- ABSOLUTE LYMPHOCYTE [3]: 10998 CELLS/uL
- ABSOLUTE MONOCYTE [3]: 210.33 CELLS/uL
- ABSOLUTE SEGMENTED NEUTROPHIL [3]: 1658.33 CELLS/uL
- BASOPHIL [3]: 0%
- EOSINOPHIL [3]: 0%
- ERYTHROCYTE COUNT [3]: 5.48 x10E6/uL
- HEMATOCRIT [3]: 34.13%
- HEMOGLOBIN [3]: 13.5 G/DL
- LEUKOCYTE COUNT [3]: 12.87 x10E3/uL
- LYMPHOCYTE [3]: 85.67%
- MEAN CORPUSCULAR HEMOGLOBIN [3]: 24.7 pg
- MEAN CORPUSCULAR HEMOGLOBIN CONCENTRATION [3]: 39.6 G/DL
- MEAN CORPUSCULAR VOLUME [3]: 62.3 fL
- MONOCYTE [3]: 1.67%
- NEUTROPHIL [3]: 12.67%
- NUCLEATED RED BLOOD CELLS [3]: 0 /100WBC
- PLATELET COUNT [3]: 1052.33 x10E3/uL
- ALANINE AMINOTRANSFERASE [3]: 74.67 u/L
- ALBUMIN [3]: 3.93 G/DL
- ALKALINE PHOSPHATASE [3]: 451 u/L
- ASPARTATE AMINOTRANSFERASE [3]: 94.33 u/L
- BLOOD UREA NITROGEN [3]: 12 mg/dL
- CARBON DIOXIDE [3]: 24 mmol/L
- CHLORIDE [3]: 102.67 MEQ/L
- CHOLESTEROL [3]: 79 mg/dL
- CREATINE PHOSPHOKINASE [3]: 294.67 u/L
- CREATININE [3]: 0.2 mg/dL
- GLUCOSE [3]: 157.33 mg/dL
- LACTATE DEHYDROGENASE [3]: 177 u/L
- LIPASE [3]: 12.33 u/L
- PHOSPHORUS [3]: 12.33 mg/dL
- POTASSIUM [3]: 5.95 MEQ/L
- SODIUM [3]: 143.97 MEQ/L
- TOTAL BILIRUBIN [3]: 0.17 mg/dL
- TOTAL PROTEIN [3]: 5.47 G/DL
- URIC ACID [3]: 1.27 mg/dL
- ABSOLUTE BASOPHIL [4]: 0 CELLS/uL
- ABSOLUTE EOSINOPHIL [4]: 0 CELLS/uL
- ABSOLUTE LYMPHOCYTE [4]: 11058.67 CELLS/uL
- ABSOLUTE MONOCYTE [4]: 46 CELLS/uL
- ABSOLUTE SEGMENTED NEUTROPHIL [4]: 1295.33 CELLS/uL
- BASOPHIL [4]: 0%
- EOSINOPHIL [4]: 0%
- ERYTHROCYTE COUNT [4]: 5.5 x10E6/uL
- HEMATOCRIT [4]: 34.53%
- HEMOGLOBIN [4]: 13.8 G/DL
- LEUKOCYTE COUNT [4]: 12.4 x10E3/uL
- LYMPHOCYTE [4]: 89.67%
- MEAN CORPUSCULAR HEMOGLOBIN [4]: 25.13 pg
- MEAN CORPUSCULAR HEMOGLOBIN CONCENTRATION [4]: 39.97 G/DL
- MEAN CORPUSCULAR VOLUME [4]: 62.83 fL
- MONOCYTE [4]: 0.33%
- NEUTROPHIL [4]: 10%
- NUCLEATED RED BLOOD CELLS [4]: 0 /100WBC
- PLATELET COUNT [4]: 1265 x10E3/uL
- ALANINE AMINOTRANSFERASE [4]: 63.67 u/L
- ALBUMIN [4]: 4.2 G/DL
- ALKALINE PHOSPHATASE [4]: 474 u/L
- ASPARTATE AMINOTRANSFERASE [4]: 88.67 u/L
- BLOOD UREA NITROGEN [4]: 11.33 mg/dL
- CARBON DIOXIDE [4]: 35.33 mmol/L
- CHLORIDE [4]: 100.33 MEQ/L
- CHOLESTEROL [4]: 59.33 mg/dL
- CREATINE PHOSPHOKINASE [4]: 280.67 u/L
- CREATININE [4]: 0.16 mg/dL
- GLUCOSE [4]: 138.67 mg/dL
- LACTATE DEHYDROGENASE [4]: 317.67 u/L
- LIPASE [4]: 10.67 u/L
- PHOSPHORUS [4]: 10.57 mg/dL
- POTASSIUM [4]: 6.26 MEQ/L
- SODIUM [4]: 144.83 MEQ/L
- TOTAL BILIRUBIN [4]: 0.2 mg/dL
- TOTAL PROTEIN [4]: 5.93 G/DL
- URIC ACID [4]: 1.4 mg/dL
